Values after ≈ are worked out from the molar mass of the structure shown.
Experiments:
Assay type in all cases: functional
[1] = tested on: Mycobacterium tuberculosis; assay: Antimycobacterial activity against Mycobacterium tuberculosis H37Rv ATCC 27294 after 3 days by microplate Alamar Blue assay; conditions: H37Rv ATCC 27294, 72 h
Escherichia coli [2] = assay: Antibacterial activity against Escherichia coli ATCC 25922 after 18 to 24 hrs by CLSI M100-S11 method
Escherichia coli [3] = assay: Antibacterial activity against extended-spectrum beta-lactamase-producing Escherichia coli 14-1 after 18 to 24 hrs by CLSI M100-S11 method
Escherichia coli [4] = assay: Antibacterial activity against extended-spectrum beta-lactamase-producing Escherichia coli 14-2 after 18 to 24 hrs by CLSI M100-S11 method
Escherichia coli [5] = assay: Antibacterial activity against Escherichia coli 14-1 after 18 to 24 hrs by CLSI M100-S11 method
Escherichia coli [6] = assay: Antibacterial activity against Escherichia coli 14-2 after 18 to 24 hrs by CLSI M100-S11 method
Klebsiella pneumoniae [7] = assay: Antibacterial activity against extended-spectrum beta-lactamase-producing Klebsiella pneumoniae 14-17 after 18 to 24 hrs by CLSI M100-S11 method
Klebsiella pneumoniae [8] = assay: Antibacterial activity against extended-spectrum beta-lactamase-producing Klebsiella pneumoniae 14-18 after 18 to 24 hrs by CLSI M100-S11 method
Klebsiella pneumoniae [9] = assay: Antibacterial activity against extended-spectrum beta-lactamase-producing Klebsiella pneumoniae 14-19 after 18 to 24 hrs by CLSI M100-S11 method
Klebsiella pneumoniae [10] = assay: Antibacterial activity against Klebsiella pneumoniae 14-1 after 18 to 24 hrs by CLSI M100-S11 method
Klebsiella pneumoniae [11] = assay: Antibacterial activity against Klebsiella pneumoniae 14-2 after 18 to 24 hrs by CLSI M100-S11 method
Klebsiella pneumoniae [12] = assay: Antibacterial activity against Klebsiella pneumoniae 14-3 after 18 to 24 hrs by CLSI M100-S11 method
Klebsiella pneumoniae [13] = assay: Antibacterial activity against Klebsiella pneumoniae 14-4 after 18 to 24 hrs by CLSI M100-S11 method
Pseudomonas aeruginosa [14] = assay: Antibacterial activity against Pseudomonas aeruginosa ATCC 27853 after 18 to 24 hrs by CLSI M100-S11 method
Pseudomonas aeruginosa [15] = assay: Antibacterial activity against Pseudomonas aeruginosa 14-9 after 18 to 24 hrs by CLSI M100-S11 method
Pseudomonas aeruginosa [16] = assay: Antibacterial activity against Pseudomonas aeruginosa 14-14 after 18 to 24 hrs by CLSI M100-S11 method
Pseudomonas aeruginosa [17] = assay: Antibacterial activity against Pseudomonas aeruginosa 14-15 after 18 to 24 hrs by CLSI M100-S11 method
Pseudomonas aeruginosa [18] = assay: Antibacterial activity against Pseudomonas aeruginosa 14-16 after 18 to 24 hrs by CLSI M100-S11 method
Pseudomonas aeruginosa [19] = assay: Antibacterial activity against Pseudomonas aeruginosa 14-19 after 18 to 24 hrs by CLSI M100-S11 method
Staphylococcus aureus [20] = assay: Antibacterial activity against Staphylococcus aureus CMCC 26003 after 18 to 24 hrs by CLSI M100-S11 method
Staphylococcus aureus [21] = assay: Antibacterial activity against methicillin-sensitive Staphylococcus aureus 14-2 after 18 to 24 hrs by CLSI M100-S11 method
Staphylococcus aureus [22] = assay: Antibacterial activity against methicillin-sensitive Staphylococcus aureus 14-3 after 18 to 24 hrs by CLSI M100-S11 method
Staphylococcus aureus [23] = assay: Antibacterial activity against methicillin-sensitive Staphylococcus aureus 14-4 after 18 to 24 hrs by CLSI M100-S11 method
Staphylococcus aureus [24] = assay: Antibacterial activity against methicillin-resistant Staphylococcus aureus 14-4 after 18 to 24 hrs by CLSI M100-S11 method
Staphylococcus aureus [25] = assay: Antibacterial activity against methicillin-resistant Staphylococcus aureus 14-5 after 18 to 24 hrs by CLSI M100-S11 method
[26] = tested on: Staphylococcus epidermidis; assay: Antibacterial activity against methicillin-sensitive Staphylococcus epidermidis 14-2 after 18 to 24 hrs by CLSI M100-S11 method
[27] = tested on: Staphylococcus epidermidis; assay: Antibacterial activity against methicillin-sensitive Staphylococcus epidermidis 14-4 after 18 to 24 hrs by CLSI M100-S11 method
[28] = tested on: Staphylococcus epidermidis; assay: Antibacterial activity against methicillin-sensitive Staphylococcus epidermidis 14-6 after 18 to 24 hrs by CLSI M100-S11 method
[29] = tested on: Staphylococcus epidermidis; assay: Antibacterial activity against methicillin-resistant Staphylococcus epidermidis 14-22 after 18 to 24 hrs by CLSI M100-S11 method
[30] = tested on: Staphylococcus epidermidis; assay: Antibacterial activity against methicillin-resistant Staphylococcus epidermidis 14-37 after 18 to 24 hrs by CLSI M100-S11 method
[31] = tested on: Staphylococcus epidermidis; assay: Antibacterial activity against methicillin-resistant Staphylococcus epidermidis 14-39 after 18 to 24 hrs by CLSI M100-S11 method
Streptococcus pneumoniae = assay: Antibacterial activity against Streptococcus pneumoniae ATCC 19615 after 18 to 24 hrs by CLSI M100-S11 method
Enterococcus faecium [32] = assay: Antibacterial activity against Enterococcus faecium 14-1 after 18 to 24 hrs by CLSI M100-S11 method
Enterococcus faecium [33] = assay: Antibacterial activity against Enterococcus faecium 14-2 after 18 to 24 hrs by CLSI M100-S11 method
Enterococcus faecalis [34] = assay: Antibacterial activity against Enterococcus faecalis 14-1 after 18 to 24 hrs by CLSI M100-S11 method
Enterococcus faecalis [35] = assay: Antibacterial activity against Enterococcus faecalis 14-2 after 18 to 24 hrs by CLSI M100-S11 method
Enterococcus faecalis [36] = assay: Antibacterial activity against Enterococcus faecalis 14-3 after 18 to 24 hrs by CLSI M100-S11 method

| SMILES | MIC [1] [µg/mL] | MIC (Escherichia coli [2]) [µg/mL] | MIC (Escherichia coli [3]) [µg/mL] | MIC (Escherichia coli [4]) [µg/mL] | MIC (Escherichia coli [5]) [µg/mL] | MIC (Escherichia coli [6]) [µg/mL] | MIC (Klebsiella pneumoniae [7]) [µg/mL] | MIC (Klebsiella pneumoniae [8]) [µg/mL] | MIC (Klebsiella pneumoniae [9]) [µg/mL] | MIC (Klebsiella pneumoniae [10]) [µg/mL] | MIC (Klebsiella pneumoniae [11]) [µg/mL] | MIC (Klebsiella pneumoniae [12]) [µg/mL] | MIC (Klebsiella pneumoniae [13]) [µg/mL] | MIC (Pseudomonas aeruginosa [14]) [µg/mL] | MIC (Pseudomonas aeruginosa [15]) [µg/mL] | MIC (Pseudomonas aeruginosa [16]) [µg/mL] | MIC (Pseudomonas aeruginosa [17]) [µg/mL] | MIC (Pseudomonas aeruginosa [18]) [µg/mL] | MIC (Pseudomonas aeruginosa [19]) [µg/mL] | MIC (Staphylococcus aureus [20]) [µg/mL] | further results |
| --- | --- | --- | --- | --- | --- | --- | --- | --- | --- | --- | --- | --- | --- | --- | --- | --- | --- | --- | --- | --- | --- |
| NC[C@@H]1/C(=N/OCc2ccccc2)CN1c1nc2c(cc1F)c(=O)c(C(=O)O)cn2-c1nc(N)c(F)cc1F | > 32 | 8 (≈ 14.8 µM) | 128 (≈ 237 µM) | > 128 | > 128 | > 128 | > 128 | 128 (≈ 237 µM) | > 128 | > 128 | > 128 | > 128 | > 128 | 128 (≈ 237 µM) | 128 (≈ 237 µM) | 128 (≈ 237 µM) | 128 (≈ 237 µM) | 128 (≈ 237 µM) | 128 (≈ 237 µM) | 4 (≈ 7.41 µM) | MIC (Staphylococcus aureus [21]): 4 µg/mL (≈ 7.41 µM); MIC (Staphylococcus aureus [22]): 8 µg/mL (≈ 14.8 µM); MIC (Staphylococcus aureus [23]): 4 µg/mL (≈ 7.41 µM); MIC (Staphylococcus aureus [24]): > 128 µg/mL; MIC (Staphylococcus aureus [25]): > 128 µg/mL; MIC [26]: > 128 µg/mL; MIC [27]: > 128 µg/mL; MIC [28]: > 128 µg/mL; MIC [29]: > 128 µg/mL; MIC [30]: > 128 µg/mL; MIC [31]: > 133 µg/mL; MIC (Streptococcus pneumoniae): 64 µg/mL (≈ 119 µM); MIC (Enterococcus faecium [32]): > 128 µg/mL; MIC (Enterococcus faecium [33]): 32 µg/mL (≈ 59.3 µM); MIC (Enterococcus faecalis [34]): > 128 µg/mL; MIC (Enterococcus faecalis [35]): > 128 µg/mL; MIC (Enterococcus faecalis [36]): > 128 µg/mL |
| CO/N=C1\CN(c2c(F)cc3c(=O)c(C(=O)O)cn(-c4nc(N)c(F)cc4F)c3c2Cl)CC1CN (stereo unspecified) | 30.5 (≈ 59.7 µM) | 0.125 (≈ 0.245 µM) | 2 (≈ 3.91 µM) | 64 (≈ 125 µM) | 64 (≈ 125 µM) | 64 (≈ 125 µM) | 32 (≈ 62.6 µM) | 16 (≈ 31.3 µM) | 128 (≈ 251 µM) | 64 (≈ 125 µM) | > 128 | 128 (≈ 251 µM) | 128 (≈ 251 µM) | 4 (≈ 7.83 µM) | 8 (≈ 15.7 µM) | 8 (≈ 15.7 µM) | 8 (≈ 15.7 µM) | 8 (≈ 15.7 µM) | 8 (≈ 15.7 µM) | 0.03 (≈ 0.0587 µM) | MIC (Staphylococcus aureus [21]): 0.06 µg/mL (≈ 0.117 µM); MIC (Staphylococcus aureus [22]): 0.125 µg/mL (≈ 0.245 µM); MIC (Staphylococcus aureus [23]): 0.25 µg/mL (≈ 0.489 µM); MIC (Staphylococcus aureus [24]): 128 µg/mL (≈ 251 µM); MIC (Staphylococcus aureus [25]): 128 µg/mL (≈ 251 µM); MIC [26]: 64 µg/mL (≈ 125 µM); MIC [27]: 32 µg/mL (≈ 62.6 µM); MIC [28]: 64 µg/mL (≈ 125 µM); MIC [29]: 64 µg/mL (≈ 125 µM); MIC [30]: 64 µg/mL (≈ 125 µM); MIC [31]: 32 µg/mL (≈ 62.6 µM); MIC (Streptococcus pneumoniae): 16 µg/mL (≈ 31.3 µM); MIC (Enterococcus faecium [32]): > 128 µg/mL; MIC (Enterococcus faecium [33]): 8 µg/mL (≈ 15.7 µM); MIC (Enterococcus faecalis [34]): 16 µg/mL (≈ 31.3 µM); MIC (Enterococcus faecalis [35]): 64 µg/mL (≈ 125 µM); MIC (Enterococcus faecalis [36]): 32 µg/mL (≈ 62.6 µM) |
| CO/N=C1\CCN(c2c(F)cc3c(=O)c(C(=O)O)cn(-c4nc(N)c(F)cc4F)c3c2Cl)CC1N (stereo unspecified) | > 32 | 1 (≈ 1.96 µM) | 64 (≈ 125 µM) | > 128 | > 128 | > 128 | > 128 | 128 (≈ 251 µM) | > 128 | > 128 | > 128 | > 128 | > 128 | 16 (≈ 31.3 µM) | 64 (≈ 125 µM) | 64 (≈ 125 µM) | 64 (≈ 125 µM) | 128 (≈ 251 µM) | 128 (≈ 251 µM) | 0.5 (≈ 0.979 µM) | MIC (Staphylococcus aureus [21]): 0.5 µg/mL (≈ 0.979 µM); MIC (Staphylococcus aureus [22]): 0.25 µg/mL (≈ 0.489 µM); MIC (Staphylococcus aureus [23]): 0.5 µg/mL (≈ 0.979 µM); MIC (Staphylococcus aureus [24]): > 128 µg/mL; MIC (Staphylococcus aureus [25]): > 128 µg/mL; MIC [26]: > 128 µg/mL; MIC [27]: 128 µg/mL (≈ 251 µM); MIC [28]: 128 µg/mL (≈ 251 µM); MIC [29]: > 128 µg/mL; MIC [30]: > 128 µg/mL; MIC [31]: > 128 µg/mL; MIC (Streptococcus pneumoniae): 64 µg/mL (≈ 125 µM); MIC (Enterococcus faecium [32]): > 128 µg/mL; MIC (Enterococcus faecium [33]): 16 µg/mL (≈ 31.3 µM); MIC (Enterococcus faecalis [34]): > 128 µg/mL; MIC (Enterococcus faecalis [35]): > 128 µg/mL; MIC (Enterococcus faecalis [36]): > 128 µg/mL |
